# Test results as given in PubChem BioAssay AID720632 (Broad Institute, 2013).
# Calls of active or inactive are those of the source. The rule behind the calls is not given here.
# Biological target: Caspase-6 (Homo sapiens) (UniProt P55212)
# Test: human caspase-6 inhibitors, dose response, biochemical, VEID-R110 fluorescence, cherry-pick (AID 720632)
# Conditions: caspase-6, VEID-R110 fluorogenic substrate
# Sequence of Caspase-6 (Homo sapiens) (P55212 24-179 limits assumed): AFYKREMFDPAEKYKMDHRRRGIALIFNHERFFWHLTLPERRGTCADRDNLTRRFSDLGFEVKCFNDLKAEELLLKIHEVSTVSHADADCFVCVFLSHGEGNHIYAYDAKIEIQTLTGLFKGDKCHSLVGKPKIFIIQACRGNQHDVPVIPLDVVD
# Sequence of Caspase-6 (Homo sapiens) (P55212 194-293 limits assumed): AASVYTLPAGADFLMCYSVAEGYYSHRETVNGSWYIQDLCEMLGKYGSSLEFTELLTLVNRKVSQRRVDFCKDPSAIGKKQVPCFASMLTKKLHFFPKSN
SMILES,"activity change, negative = inhibition (at 26 µM (top of the series))","activity change, negative = inhibition (at 23.5 µM (top of the series))"
CO[C@@H]1CN(C)C(=O)c2ccc(NC(C)=O)cc2OC[C@H](C)N(C(=O)CC2CC2)C[C@@H]1C,inactive,
CC1CCCC(C)N1C(=O)C1CCCCC1 (stereo not given),inactive,
CCCCCn1nnnc1-c1nc2cc(C)c(C)cc2[nH]c1=O,inactive,
CCCN1C[C@H](C)[C@@H](OC)CN(C)C(=O)c2ccc(NC(=O)CC)cc2OC[C@@H]1C,inactive,
CCC1=NN(C(=O)c2ccccc2O)C(O)(c2ccccc2)C1 (stereo not given),inactive,
CCCC(=O)Nc1ccc2c(c1)OC[C@@H](C)N(Cc1ccc(F)cc1)C[C@H](C)[C@@H](OC)CN(C)C2=O,inactive,
O=C(Nc1cccc(C(=O)N2CCOCC2)c1)c1ccc([N+](=O)[O-])cc1,inactive,
CC(C)OCCCNC(=O)c1c(N)n(CC2CCCO2)c2nc3ccccc3nc12 (stereo not given),inactive,
O=C(NC1CCCCC1)C(c1ccnc2ccccc12)N1CCc2ccccc2C1 (stereo not given),inactive,
O=C(O)c1ccc(N2C(=O)CC(N3CCN(c4cccc(C(F)(F)F)c4)CC3)C2=O)cc1 (stereo not given),inactive,
COc1ccc(N(C)S(=O)(=O)c2cccc(C(=O)NCC(c3cccs3)N(C)C)c2)cc1 (stereo not given),inactive,
CCOC(=O)C1(Cc2ccccc2C)CCCN(C(=O)CCc2cccnc2)C1 (stereo not given),inactive,
O=C(Nc1ccc2c(c1)[C@H]1C[C@H](CC(=O)N3CCCCC3)O[C@@H](CO)[C@H]1O2)Nc1ccccc1F,inactive,
CCC(=O)Nc1ccc2c(c1)OC[C@@H](C)N(C(=O)CC)C[C@@H](C)[C@@H](OC)CN(C)C2=O,inactive,
COc1ccc(OC)c(S(=O)(=O)NCC(c2cccs2)N2CCc3ccccc3C2)c1 (stereo not given),inactive,
Oc1c(CN2CCCCC2)ccc2cccnc12,inactive,
Nc1cccnc1Oc1ccc(F)cc1,inactive,
COc1ccccc1C(=O)Nc1ccc2c(c1)OC[C@@H](C)N(CC1CC1)C[C@@H](C)[C@@H](OC)CN(C)C2=O,inactive,
CCC(=O)Nc1ccc2c(c1)OC[C@H](C)N(C(=O)CC)C[C@@H](C)[C@H](OC)CN(C)C2=O,inactive,
COc1ccccc1S(=O)(=O)N[C@@H]1C=C[C@@H](CC(=O)N2CCOCC2)O[C@H]1CO,inactive,
C/C=C/c1ccc([C@@H]2[C@H](CO)N(C(=O)C3CCCC3)C23CN(S(C)(=O)=O)C3)cc1,inactive,
COCC(=O)Nc1ccc2c(c1)OC[C@@H](C)N(CC1CC1)C[C@H](C)[C@@H](OC)CN(C)C2=O,inactive,

SMILES,"activity change, negative = inhibition (at 26 µM (top of the series))","activity change, negative = inhibition (at 23.5 µM (top of the series))"
CCC(=O)Nc1ccc2c(c1)OC[C@@H](C)N(C(=O)CC)C[C@@H](C)[C@H](OC)CN(C)C2=O,,inactive
CC(=O)Oc1cc(C(=O)OCC(=O)N2CCc3ccccc3C2)cc(OC(C)=O)c1OC(C)=O,inactive,
CCCN1C[C@H](C)[C@@H](OC)CN(C)C(=O)c2ccc(NC(=O)c3ccccc3)cc2OC[C@H]1C,inactive,
C=CCC(NCc1ccccc1)c1ccc(Cl)cc1 (stereo not given),inactive,
COCC(=O)Nc1ccc2c(c1)OC[C@@H](C)N(CC1CC1)C[C@@H](C)[C@H](OC)CN(C)C2=O,inactive,
O=Cc1cscc1[B-](F)(F)F,inactive,
CCCCN(C(=O)c1cccc(-n2cccc2)c1)c1c(N)n(CCCC)c(=O)[nH]c1=O,inactive,
CCOc1cc2c(cc1OC)C(c1cccc([N+](=O)[O-])c1)NCC2 (stereo not given),inactive,
CC(C)CNC(=O)c1cccc2c(-c3ccc(F)c(F)c3)coc12,inactive,
Cc1cc(C)nc(N2CCN(S(=O)(=O)c3ccc(F)cc3)CC2)n1,inactive,
NNC(=O)CC1=NNC(=O)C1,inactive,
Cc1csc(=O)n1CCC(=O)OCc1nnc(-c2ccc([N+](=O)[O-])cc2)o1,inactive,
COc1ccc(N2CCN(C(=O)CCNS(=O)(=O)c3ccc(C)cc3)CC2)cc1,inactive,
O=C(O)c1ccc2nnn(O)c2c1,inactive,
CCOc1ccc(-c2n[nH]c(=S)n2Cc2ccccc2)cc1,inactive,
CN(C)CCNC(=O)c1cccc(S(=O)(=O)Nc2ccccc2F)c1,inactive,
CCN(C(=O)COC(=O)c1oc2ccccc2c1C)c1c(N)n(Cc2ccccc2)c(=O)[nH]c1=O,inactive,
O=C(Oc1cccc(-n2cnnn2)c1)c1ccccc1Cl,inactive,
O=c1nc2ccc(Cl)cn2c2ccc(S(=O)(=O)N3CCCCC3)cc12,inactive,
CCOC(=O)[C@H]1[C@H]2COc3ccc(Cl)cc3[C@@H]2N2C(=O)CN(Cc3ccc(C)cc3)C(=O)[C@@]12C,inactive,
CO[C@@H]1CN(C)C(=O)c2ccc(NC(=O)C3CC3)cc2OC[C@@H](C)N(C)C[C@H]1C,inactive,
CSc1ccc(CN2CCC2(C)C(=O)Nc2cccc(NS(C)(=O)=O)c2)cc1 (stereo not given),inactive,

SMILES,"activity change, negative = inhibition (at 26 µM (top of the series))","activity change, negative = inhibition (at 23.5 µM (top of the series))"
CC1CCN(CCCNC(=O)COc2cc(=O)n(C)c3ccccc23)CC1,inactive,
O=C(NC(=O)c1csnn1)Nc1ccccc1Cl,inactive,
CCOCCCNC(=O)C1c2ccccc2Oc2ccccc21,inactive,
Cc1c(Cl)cccc1NC(=O)Nc1cc(C(C)(C)C)on1,inactive,
O=C(O)C1Sc2[nH]c(=O)sc2C2c3ccc(O)cc3OC(=O)C12 (stereo not given),inactive,
COC(=O)c1cccc(NC(=O)c2cccc(N3C(=O)CCC3=O)c2)c1,inactive,
COc1ccc(CCNC(=O)c2c(C)noc2C)cc1,inactive,
CCOC(=O)c1sc(C)c2c(=O)n(Cc3ccc(Cl)cc3)cnc12,inactive,
Cc1ccc(NC(=O)C(c2ccccc2)N2CCN(CC(=O)N3CCOCC3)CC2)cc1Cl (stereo not given),inactive,
COC(=O)C[C@H]1CC[C@@H]2[C@H](COc3ccc(NC(=O)c4cnccn4)cc3C(=O)N2C)O1,inactive,
O=C(N/N=C/c1ccc(O)cc1O)C(=O)N/N=C/c1ccc(O)cc1O,inactive,
CCCN1C[C@@H](C)[C@@H](OC)CN(C)C(=O)c2ccc(NC(=O)c3ccccc3)cc2OC[C@H]1C,inactive,
COC(=O)c1ccc(C(=O)OC)c(NC(=O)CN(c2ccc3c(c2)OCO3)S(C)(=O)=O)c1,inactive,
CCN(Cc1ccccc1OC)CC1CCCN(CCc2cccc(OC)c2)C1 (stereo not given),inactive,
CCCC(=O)n1nc(-c2cccnc2)nc1NCc1ccc(OC)cc1,inactive,
Oc1ccc(Br)cc1CNc1cccc2cccnc12,inactive,
CCCCOc1ccc(C(=O)OCC(=O)N2CCOCC2)cc1,inactive,
COc1cccc(NC(=O)Cn2c(=O)n(C)c(=O)c3sc4c(c32)COC(C)(C)C4)c1,inactive,
Cc1csc(=O)n1CC(=O)OCC(=O)NCc1ccc(F)cc1,inactive,
OCc1ccccc1-c1nc(NCc2ccccc2)nc2ccsc12,inactive,
COc1cccc(NC(=O)CC(=O)c2ccc([N+](=O)[O-])cc2)c1,inactive,
Cc1cc(N2CCCC2)ccc1NC(=O)CN1C(=O)NC2(CCCCC2)C1=O,inactive,

SMILES,"activity change, negative = inhibition (at 26 µM (top of the series))","activity change, negative = inhibition (at 23.5 µM (top of the series))"
CN1c2ccccc2Sc2cc(N)ccc21,inactive,
CCOC(=O)N1CCN(C(=O)CN(C)S(=O)(=O)c2ccc3c(c2)c(=O)n(C)c(=O)n3C)CC1,inactive,
C/C(=N\NC(=O)c1ccccc1O)C1CC1,inactive,
CCCC(=O)Nc1ccc2c(c1)OC[C@@H](C)NC[C@H](C)[C@H](OC)CN(C)C2=O,inactive,
CN1C(=O)NC(=O)C(N=Nc2ccc(Cl)cc2)C1=O (stereo not given),inactive,
O=C(NCC(c1ccco1)N1CCc2ccccc21)c1ccc([N+](=O)[O-])cc1 (stereo not given),inactive,
COc1ccccc1C(=O)Nc1ccc2c(c1)OC[C@H](C)N(CC1CC1)C[C@@H](C)[C@@H](OC)CN(C)C2=O,inactive,
O=C(O)C1C=Cc2ccccc2N1C(=O)c1ccccc1 (stereo not given) (tested in a mixture with another compound),inactive,
CCCN1C[C@H](C)[C@H](OC)CN(C)C(=O)c2ccc(NC(=O)c3ccccc3)cc2OC[C@@H]1C,inactive,
Cc1ccc(S(=O)(=O)N(CC(=O)Nc2ccccc2C(=O)O)c2cccc(Cl)c2C)cc1,inactive,
O=C(NCc1ccncc1)c1ccc(OCc2ccccc2)cc1,inactive,
COP(=O)(OC)c1ccc(NCc2cc(O)ccc2O)cc1,inactive,
CCC(C)(C)NC(=O)CN(C(=O)CNS(=O)(=O)c1ccc(F)cc1)c1ccc2c(c1)OCCO2,inactive,
COc1cc(OC)c(OC)cc1CN1CCSCC1,inactive,
COc1cccc(N2C(=O)NC(=O)/C(=C/c3ccc([N+](=O)[O-])s3)C2=O)c1,inactive,
CC(C)OCCCNC(=O)CN1C(=O)COc2ccc(S(=O)(=O)N3CCCCCC3)cc21,inactive,
CCCN1C[C@H](C)[C@H](OC)CN(C)C(=O)c2ccc(NC(=O)CC)cc2OC[C@H]1C,inactive,
CCc1noc(C)c1C(=O)Nc1ccc(S(=O)(=O)N2CCCC(C)C2)cc1 (stereo not given),inactive,
O=C(O)C[C@H]1CC[C@H]2[C@@H](COC[C@H](O)CN2S(=O)(=O)c2ccc(Oc3ccccc3)cc2)O1,inactive,
